This note sets out measurements from ChEMBL document CHEMBL3526059, “Reversible inhibition of human carboxylesterases by acyl glucuronides” (Drug Metab Dispos, 2013).

SMILES strings stand for the structures.

Data set [1] can be described thus: Half life in phosphate buffer at pH 7.4 by HPLC analysis. The class given is physicochemical.
Data set [2] is described as follows: Half life in phosphate buffer at 10 uM at pH 7.4 by LC/TOF-MS analysis. The class given is physicochemical.
Data set [3] deals with T1, Cocaine esterase (Homo sapiens, UniProt O00748).
T1 sequence (O00748 whole entry): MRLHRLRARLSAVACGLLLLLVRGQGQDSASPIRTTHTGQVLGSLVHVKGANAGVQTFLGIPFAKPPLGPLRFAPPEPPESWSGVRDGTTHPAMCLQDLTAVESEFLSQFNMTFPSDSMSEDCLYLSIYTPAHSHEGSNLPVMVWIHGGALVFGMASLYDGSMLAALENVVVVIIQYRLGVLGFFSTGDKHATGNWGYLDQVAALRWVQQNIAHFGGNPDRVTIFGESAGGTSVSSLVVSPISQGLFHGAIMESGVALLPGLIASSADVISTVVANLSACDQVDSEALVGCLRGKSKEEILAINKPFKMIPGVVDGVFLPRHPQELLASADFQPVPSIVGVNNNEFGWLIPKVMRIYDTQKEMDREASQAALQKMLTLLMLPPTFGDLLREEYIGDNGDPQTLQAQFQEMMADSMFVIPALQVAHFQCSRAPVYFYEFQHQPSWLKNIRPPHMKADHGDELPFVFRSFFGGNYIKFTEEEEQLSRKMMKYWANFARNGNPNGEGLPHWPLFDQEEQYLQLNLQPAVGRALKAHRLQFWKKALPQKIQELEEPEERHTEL
Nature of the data set: Inhibition of human CES2 assessed as hydrolysis of 4NPA to 4NP at 1 mM by spectrophotometric analysis. As to conditions: 1000 µM; call rule not given here.

The target in data set [4] is T2, Liver carboxylesterase 1 (Homo sapiens, UniProt P23141).
T2 sequence (P23141 whole entry): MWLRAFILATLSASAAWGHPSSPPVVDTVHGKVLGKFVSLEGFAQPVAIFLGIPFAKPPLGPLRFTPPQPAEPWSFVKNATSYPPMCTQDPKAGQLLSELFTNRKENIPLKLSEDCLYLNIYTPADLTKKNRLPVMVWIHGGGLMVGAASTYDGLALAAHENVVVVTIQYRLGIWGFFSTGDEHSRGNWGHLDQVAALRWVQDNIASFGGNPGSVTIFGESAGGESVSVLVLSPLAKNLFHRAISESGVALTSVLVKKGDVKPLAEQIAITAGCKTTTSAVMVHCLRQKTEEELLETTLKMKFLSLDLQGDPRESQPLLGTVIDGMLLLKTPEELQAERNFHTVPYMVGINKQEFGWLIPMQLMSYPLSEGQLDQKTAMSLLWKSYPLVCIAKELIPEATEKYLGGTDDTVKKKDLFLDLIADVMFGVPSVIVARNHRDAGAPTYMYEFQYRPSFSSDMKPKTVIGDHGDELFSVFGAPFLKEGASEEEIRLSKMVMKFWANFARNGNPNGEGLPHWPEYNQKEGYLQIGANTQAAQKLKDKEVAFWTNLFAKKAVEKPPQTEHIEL
In words: Reversible inhibition of human CES1 assessed as hydrolysis of 4NPA to 4NP.

In data set [5] the target is T2, Liver carboxylesterase 1. Nature of the data set: Inhibition of human CES1 assessed as hydrolysis of 4NPA to 4NP at 1 mM by spectrophotometric analysis. As to conditions: 1000 µM.
A short description of data set [6]: Half life of the compound. The class given is physicochemical.
Data set [7] has as its target T2, Liver carboxylesterase 1. In words: Time-dependent inhibition of human CES1 assessed as hydrolysis of 4NPA to 4NP preincubated for 10 mins followed by 4NPA addition.
For data set [8], the target named is T2, Liver carboxylesterase 1. In words: Time-dependent inhibition of human CES1 assessed as hydrolysis of 4NPA to 4NP preincubated for 30 mins followed by 4NPA addition.
In data set [9] the target is T2, Liver carboxylesterase 1. In words: Time-dependent inhibition of human CES1 assessed as hydrolysis of 4NPA to 4NP preincubated for 60 mins followed by 4NPA addition.
For data set [10], the target named is T2, Liver carboxylesterase 1. In words: Activity of human CES1 assessed as loss of 1-O-acyl glucuronide at 100 uM measured at 10 mins by LC/TOF-MS analysis relative to control. The class given is ADME.
For data set [11], the target named is T2, Liver carboxylesterase 1. In words: Activity of human CES1 assessed as loss of 1-O-acyl glucuronide at 100 uM measured at 30 mins by LC/TOF-MS analysis relative to control. The data set is classed as ADME. As to conditions: 0.5 h.
Data set [12] has as its target T2, Liver carboxylesterase 1. Nature of the data set: Activity of human CES1 assessed as loss of 1-O-acyl glucuronide at 100 uM measured at 60 mins by LC/TOF-MS analysis relative to control. The class given is ADME. The following applies: 1 h.
A short description of data set [13]: Half life in buffer at pH 7.4 by 1H NMR spectroscopic analysis in presence of human urine. The class given is physicochemical. The following applies: buffer with human urine.
The target in data set [14] is T1, Cocaine esterase. In words: Inhibition of human CES2.

Compound `CC(C)Cc1ccc([C@@H](C)C(=O)O[C@@H]2O[C@H](C(=O)O)[C@@H](O)[C@H](O)[C@H]2O)cc1` had a half-life in data set [1] of 108 min.
With `CC(C)Cc1ccc([C@H](C)C(=O)O[C@@H]2O[C@H](C(=O)O)[C@@H](O)[C@H](O)[C@H]2O)cc1`, the half-life in [1] is 198 min.
In [2], `O=C(O)[C@H]1O[C@@H](OC(=O)[C@H](c2ccccc2Cl)N2CCc3sccc3C2)[C@H](O)[C@@H](O)[C@@H]1O` showed a half-life at 10 µM of 301 min. In addition, the “inhibition (INH)” value at Cocaine esterase [3] was “Not Active”. Also, at Liver carboxylesterase 1 [4], the Ki came out at 24.8 µM.
As for `CCCC(CCC)C(=O)O[C@@H]1O[C@H](C(=O)O)[C@@H](O)[C@H](O)[C@H]1O`, the “inhibition (INH)” value at Liver carboxylesterase 1 [5] and at Cocaine esterase [3] was “Not Active” each time. Also, the half-life at 10 µM in [2] is 912 min. This compound also had a half-life in data set [6] of 2.5 days.
`COc1ccc2cc([C@@H](C)C(=O)O[C@@H]3O[C@H](C(=O)O)[C@@H](O)[C@H](O)[C@H]3O)ccc2c1`: the half-life at 10 µM in [2] is 59.8 min. The “inhibition (INH)” value at Cocaine esterase [3] was “Not Active”. In addition, the Ki at Liver carboxylesterase 1 [4] stood at 468 µM.
On the same counts, the results for `COc1ccc2cc([C@H](C)C(=O)O[C@@H]3O[C@H](C(=O)O)[C@@H](O)[C@H](O)[C@H]3O)ccc2c1` are 106 min, “Not Active” and 707 µM.
`O=C(Cc1ccccc1Nc1c(Cl)cccc1Cl)O[C@@H]1O[C@H](C(=O)O)[C@@H](O)[C@H](O)[C@H]1O` showed a half-life at 10 µM in data set [2] of 32.2 min. On Cocaine esterase [3], the “inhibition (INH)” value is recorded as “Not Active”. At Liver carboxylesterase 1 [4], the Ki came out at 4.32 µM. Further, the IC50 at Liver carboxylesterase 1 [7] is 2510 nM; at Liver carboxylesterase 1 [8], 1960 nM; at Liver carboxylesterase 1 [9], 2270 nM. In addition, the values for the Activity on Liver carboxylesterase 1 [10], on Liver carboxylesterase 1 [11] and at Liver carboxylesterase 1 [12] were 20%, 50% and 75%, respectively.
With `O=C(O[C@@H]1O[C@H](C(=O)O)[C@@H](O)[C@H](O)[C@H]1O)c1cn(Cc2c(F)cccc2F)nn1`, the “inhibition (INH)” value at Liver carboxylesterase 1 [5] and at Cocaine esterase [3] was “Not Active” in each case. This compound also had a half-life at 10 µM in data set [2] of 15.1 min.
Turning to `CC(C)Cc1ccc(C(C)C(=O)O[C@@H]2O[C@H](C(=O)O)[C@@H](O)[C@H](O)[C@H]2O)cc1` (mixture of isomers), in data set [2], the half-life at 10 µM is 220 min. Besides, the “inhibition (INH)” value on Cocaine esterase [3] was “Not Active”. Also, the half-life in [13] was 210 min. Besides, the Ki on Liver carboxylesterase 1 [4] came to 355 µM.
Take `CCCC(CCC)C(=O)O` [VALPROIC ACID]: at Cocaine esterase [14], the Ki is 7.9 mM.
